Reference: ChEMBL document CHEMBL1201862, “PubChem BioAssay data set” (2004)
Active and inactive are the calls of the source.

Assays:
Cytochrome P450 2C19 = Cytochrome P450 2C19 (Homo sapiens, UniProt P33261); test: Cytochrome panel assay with activity outcomes. Panel member name: p450-cyp2c19 Compounds with AC50 equal or less than 10 uM are considered active; assay type: functional; settings: read-out: AC50
Cytochrome P450 1A2 = target: T1, Cytochrome P450 1A2 (Homo sapiens, UniProt P05177);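 further: PubChem cytochrome P450 panel assay, CYP1A2 panel member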
T1 sequence (P05177 whole entry): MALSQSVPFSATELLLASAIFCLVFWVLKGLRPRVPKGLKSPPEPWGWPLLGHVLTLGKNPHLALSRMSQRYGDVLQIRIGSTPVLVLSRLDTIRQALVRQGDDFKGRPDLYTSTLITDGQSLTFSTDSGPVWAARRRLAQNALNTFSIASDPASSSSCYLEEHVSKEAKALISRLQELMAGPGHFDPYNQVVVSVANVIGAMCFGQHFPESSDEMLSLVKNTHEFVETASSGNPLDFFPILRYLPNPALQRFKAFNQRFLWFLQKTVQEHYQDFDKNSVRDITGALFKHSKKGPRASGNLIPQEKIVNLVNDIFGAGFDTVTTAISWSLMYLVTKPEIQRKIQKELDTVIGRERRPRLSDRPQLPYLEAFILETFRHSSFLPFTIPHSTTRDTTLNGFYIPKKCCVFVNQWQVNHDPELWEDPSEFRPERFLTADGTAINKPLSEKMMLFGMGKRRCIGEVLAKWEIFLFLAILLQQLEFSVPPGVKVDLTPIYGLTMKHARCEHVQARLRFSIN

Cytochrome P450 2C9 [1] = target: T2, Cytochrome P450 2C9 (Homo sapiens, UniProt P11712)
Fatty acid synthase [2] = target: T3, Fatty acid synthase (Homo sapiens, UniProt P49327); test: FAS thioesterase domain inhibitors, dose response, biochemical, endpoint fluorescence intensity, uHTS hits (AID 624327); assay type: functional;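 further: fluorescence from hydrolysis of an O-methyl fluorescein acyl ester substrate by the enzyme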
Fatty acid synthase [3] = target: T3, Fatty acid synthase; test: FAS thioesterase domain inhibitors, dose response, biochemical, kinetic fluorescence intensity (AID 624326); assay type: functional;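 further: rate of fluorescence rise from hydrolysis of a fluorogenic O-methyl fluorescein ester substrate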
Cytochrome P450 3A4 = Cytochrome P450 3A4 (Homo sapiens, UniProt P08684);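 further: CYP3A4 tested as one member of a cytochrome P450 panel screen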
Cytochrome P450 2C9 [4] = target: T2, Cytochrome P450 2C9; remark: listed apart in the source
[5] = microbe, parasite or virus in culture; assay type: functional; settings: Mycobacterium tuberculosis
Cytochrome P450 2D6 = Cytochrome P450 2D6 (Homo sapiens, UniProt P10635);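 further: CYP2D6 member of a cytochrome P450 panel assay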
[6] = target: T4, Replicative DNA helicase DnaB (Mycobacterium tuberculosis, UniProt P9WMR3); test: DnaB intein splicing inhibitors, dose response, biochemical, cell-free fluorescence (AID 449749); assay type: functional
T4 sequence (P9WMR3 whole entry): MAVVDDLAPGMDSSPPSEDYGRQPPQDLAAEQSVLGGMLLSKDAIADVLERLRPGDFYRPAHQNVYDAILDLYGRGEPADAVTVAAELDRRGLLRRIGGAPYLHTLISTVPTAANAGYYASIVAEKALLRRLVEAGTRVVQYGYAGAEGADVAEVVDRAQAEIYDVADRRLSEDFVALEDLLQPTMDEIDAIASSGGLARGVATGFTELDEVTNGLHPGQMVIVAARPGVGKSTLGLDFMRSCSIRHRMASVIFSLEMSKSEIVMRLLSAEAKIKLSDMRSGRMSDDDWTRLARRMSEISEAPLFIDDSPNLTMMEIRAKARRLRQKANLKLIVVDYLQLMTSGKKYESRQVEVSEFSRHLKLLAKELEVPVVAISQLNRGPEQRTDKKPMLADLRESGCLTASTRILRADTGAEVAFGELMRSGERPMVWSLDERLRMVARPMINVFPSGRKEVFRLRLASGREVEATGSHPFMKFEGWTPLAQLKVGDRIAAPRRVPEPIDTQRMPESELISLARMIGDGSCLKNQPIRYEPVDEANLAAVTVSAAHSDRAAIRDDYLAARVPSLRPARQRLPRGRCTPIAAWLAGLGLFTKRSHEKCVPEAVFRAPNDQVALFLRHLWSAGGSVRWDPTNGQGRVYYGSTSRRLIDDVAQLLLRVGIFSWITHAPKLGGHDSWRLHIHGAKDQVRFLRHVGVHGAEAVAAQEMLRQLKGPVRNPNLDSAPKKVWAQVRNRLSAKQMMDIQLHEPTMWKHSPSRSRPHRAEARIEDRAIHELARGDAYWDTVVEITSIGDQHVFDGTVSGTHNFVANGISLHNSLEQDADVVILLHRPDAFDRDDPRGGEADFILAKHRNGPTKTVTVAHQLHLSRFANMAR

Protein RecA = target: T5, Protein RecA (Mycobacterium tuberculosis, UniProt P9WHJ3); test: Fluorescence Cell-Free Homogeneous Dose Retest to Identify Inhibitors of RecA-Intein Splicing Activity. [Related pubchem assays (depositor defined):AID2097, AID2223, AID489010, AID492950]; assay type: functional
T5 sequence (P9WHJ3 whole entry): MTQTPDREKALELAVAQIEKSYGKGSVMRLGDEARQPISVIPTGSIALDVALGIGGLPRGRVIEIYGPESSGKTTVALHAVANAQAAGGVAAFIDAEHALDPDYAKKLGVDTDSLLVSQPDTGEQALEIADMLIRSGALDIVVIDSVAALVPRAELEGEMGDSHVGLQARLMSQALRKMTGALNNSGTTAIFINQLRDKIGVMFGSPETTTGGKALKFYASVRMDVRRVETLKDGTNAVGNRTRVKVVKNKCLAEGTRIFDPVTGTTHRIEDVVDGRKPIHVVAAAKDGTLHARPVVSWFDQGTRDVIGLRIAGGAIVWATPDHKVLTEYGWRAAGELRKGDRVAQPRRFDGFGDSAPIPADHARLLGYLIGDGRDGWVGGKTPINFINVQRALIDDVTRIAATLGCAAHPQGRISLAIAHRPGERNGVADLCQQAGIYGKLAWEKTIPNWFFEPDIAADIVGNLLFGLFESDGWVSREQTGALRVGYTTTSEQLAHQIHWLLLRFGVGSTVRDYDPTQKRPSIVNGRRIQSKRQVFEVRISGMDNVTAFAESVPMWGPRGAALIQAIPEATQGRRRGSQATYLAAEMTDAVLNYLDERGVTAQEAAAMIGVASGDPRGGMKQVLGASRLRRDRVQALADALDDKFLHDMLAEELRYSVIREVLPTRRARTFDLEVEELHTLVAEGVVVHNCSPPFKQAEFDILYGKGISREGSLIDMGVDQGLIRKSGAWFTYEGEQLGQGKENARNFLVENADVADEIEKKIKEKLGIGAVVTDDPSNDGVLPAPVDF

[7] = Luminescence Cell-Based Dose Confirmation HTS to Identify Activators of 5'UTR Stem-Loop Driven Alpha-Synuclein mRNA Translation in H4 Neuroglioblastoma Cells. [Related pubchem assays: 1829 (Project Summary), 1814 (Primary HTS)]; assay type: functional
[8] = Luminescence Cell-Based Dose Response HTS to Identify Activators of Luciferase Translation or Activity in H4 […] Cells. [Related pubchem assays: 1829 (Project Summary), 1814 (Primary HTS)]; assay type: functional
H4 = test: Luminescence Cell-Based Dose Response HTS to Identify Activators of 5'UTR Stem-Loop Driven Prion Protein mRNA Translation in H4 Neuroglioblastoma Cells. [Related pubchem assays: 1829 (Project Summary), 1814 (Primary HTS)]; assay type: functional; settings: Homo sapiens
[9] = target: Luciferin 4-monooxygenase (Photinus pyralis, UniProt P08659); test: firefly luciferase enzyme inhibitors, dose response, biochemical, luminescence (AID 1891)
[10] = Luminescence Cell-Based Dose Confirmation HTS to Identify Inhibitors of Platelet Dense Granule Release. [Related pubchem assays: 1663 (Primary HTS), 1678 (Summary of Project)]; assay type: functional
[11] = growth suppression of PTEN-null colon cells, dose response, cell-based, HCT116 PTEN knockout (AID 1047); assay type: functional;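 further: HCT116 colon tumor cells with PTEN knocked out; cells exposed to compound for 60 hours before readout; potency for loss of cell viability measured by luminescence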
[12] = growth suppression of beta-catenin-knockout colon cells, dose response, cell-based, HCT116, human colon tumor (AID 1045); assay type: functional;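 further: HCT116 colon tumor cells with beta catenin knocked out; cells exposed to compound for 60 hours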
[13] = system: Streptococcus sp. 'group A'; test: growth inhibition of control SK(-) GAS strain, dose response, counter-screen for streptokinase expression inhibitor project, luminescence, kanamycin, BacTiterGlo, confirmation (AID 1900); assay type: functional, organism-based
Streptokinase A = target: T6, Streptokinase A (Streptococcus pyogenes serotype M1, UniProt P10520); test: S. pyogenes streptokinase expression inhibitors, potency, dose response, plasminogen activation absorbance, OD405 (AID 1914); assay type: functional, Streptococcus pyogenes M1 GAS;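 further: secreted streptokinase activity via plasminogen activation per viability signal from cell pellet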
T6 sequence (P10520 whole entry): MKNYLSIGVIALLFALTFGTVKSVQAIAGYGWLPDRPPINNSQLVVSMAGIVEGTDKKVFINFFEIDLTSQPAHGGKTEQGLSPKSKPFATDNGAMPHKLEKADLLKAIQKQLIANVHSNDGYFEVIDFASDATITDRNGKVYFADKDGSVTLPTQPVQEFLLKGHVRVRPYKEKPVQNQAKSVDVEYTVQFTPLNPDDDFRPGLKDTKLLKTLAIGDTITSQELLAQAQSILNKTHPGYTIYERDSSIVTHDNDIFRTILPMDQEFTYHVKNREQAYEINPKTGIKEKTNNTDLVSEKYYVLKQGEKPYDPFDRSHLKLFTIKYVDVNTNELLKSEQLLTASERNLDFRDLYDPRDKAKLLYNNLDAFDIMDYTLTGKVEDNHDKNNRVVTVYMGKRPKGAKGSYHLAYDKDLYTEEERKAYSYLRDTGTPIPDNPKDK

[14] = inhibitors of intracellular T. cruzi replication, confirmation, NIH3T3 host cells, beta-gal luminescence (AID 2044); assay type: functional, cell-based;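 further: intracellular parasites grown in NIH/3T3 mouse fibroblasts as host cells; luminescent beta-galactosidase reporter signal from transgenic T. cruzi replicating inside host cells; inhibitors lower the luminescence signal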
[15] = cytotoxicity toward NIH3T3 fibroblasts, dose response, counter-screen, cell-based, ATP luminescence, mouse fibroblasts (AID 2010); assay type: functional;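 further: cells exposed to compound for about 90 hours before reading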
Streptococcus = test: Group A Streptococcus viability loss, dose response, counter-screen for streptokinase expression inhibitor project, luminescence, BacTiterGlo (AID 1915); assay type: functional, organism-based;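 further: potency for reduction of bacterial viability or growth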

T3 sequence (P49327 whole entry, the tested form may be a part): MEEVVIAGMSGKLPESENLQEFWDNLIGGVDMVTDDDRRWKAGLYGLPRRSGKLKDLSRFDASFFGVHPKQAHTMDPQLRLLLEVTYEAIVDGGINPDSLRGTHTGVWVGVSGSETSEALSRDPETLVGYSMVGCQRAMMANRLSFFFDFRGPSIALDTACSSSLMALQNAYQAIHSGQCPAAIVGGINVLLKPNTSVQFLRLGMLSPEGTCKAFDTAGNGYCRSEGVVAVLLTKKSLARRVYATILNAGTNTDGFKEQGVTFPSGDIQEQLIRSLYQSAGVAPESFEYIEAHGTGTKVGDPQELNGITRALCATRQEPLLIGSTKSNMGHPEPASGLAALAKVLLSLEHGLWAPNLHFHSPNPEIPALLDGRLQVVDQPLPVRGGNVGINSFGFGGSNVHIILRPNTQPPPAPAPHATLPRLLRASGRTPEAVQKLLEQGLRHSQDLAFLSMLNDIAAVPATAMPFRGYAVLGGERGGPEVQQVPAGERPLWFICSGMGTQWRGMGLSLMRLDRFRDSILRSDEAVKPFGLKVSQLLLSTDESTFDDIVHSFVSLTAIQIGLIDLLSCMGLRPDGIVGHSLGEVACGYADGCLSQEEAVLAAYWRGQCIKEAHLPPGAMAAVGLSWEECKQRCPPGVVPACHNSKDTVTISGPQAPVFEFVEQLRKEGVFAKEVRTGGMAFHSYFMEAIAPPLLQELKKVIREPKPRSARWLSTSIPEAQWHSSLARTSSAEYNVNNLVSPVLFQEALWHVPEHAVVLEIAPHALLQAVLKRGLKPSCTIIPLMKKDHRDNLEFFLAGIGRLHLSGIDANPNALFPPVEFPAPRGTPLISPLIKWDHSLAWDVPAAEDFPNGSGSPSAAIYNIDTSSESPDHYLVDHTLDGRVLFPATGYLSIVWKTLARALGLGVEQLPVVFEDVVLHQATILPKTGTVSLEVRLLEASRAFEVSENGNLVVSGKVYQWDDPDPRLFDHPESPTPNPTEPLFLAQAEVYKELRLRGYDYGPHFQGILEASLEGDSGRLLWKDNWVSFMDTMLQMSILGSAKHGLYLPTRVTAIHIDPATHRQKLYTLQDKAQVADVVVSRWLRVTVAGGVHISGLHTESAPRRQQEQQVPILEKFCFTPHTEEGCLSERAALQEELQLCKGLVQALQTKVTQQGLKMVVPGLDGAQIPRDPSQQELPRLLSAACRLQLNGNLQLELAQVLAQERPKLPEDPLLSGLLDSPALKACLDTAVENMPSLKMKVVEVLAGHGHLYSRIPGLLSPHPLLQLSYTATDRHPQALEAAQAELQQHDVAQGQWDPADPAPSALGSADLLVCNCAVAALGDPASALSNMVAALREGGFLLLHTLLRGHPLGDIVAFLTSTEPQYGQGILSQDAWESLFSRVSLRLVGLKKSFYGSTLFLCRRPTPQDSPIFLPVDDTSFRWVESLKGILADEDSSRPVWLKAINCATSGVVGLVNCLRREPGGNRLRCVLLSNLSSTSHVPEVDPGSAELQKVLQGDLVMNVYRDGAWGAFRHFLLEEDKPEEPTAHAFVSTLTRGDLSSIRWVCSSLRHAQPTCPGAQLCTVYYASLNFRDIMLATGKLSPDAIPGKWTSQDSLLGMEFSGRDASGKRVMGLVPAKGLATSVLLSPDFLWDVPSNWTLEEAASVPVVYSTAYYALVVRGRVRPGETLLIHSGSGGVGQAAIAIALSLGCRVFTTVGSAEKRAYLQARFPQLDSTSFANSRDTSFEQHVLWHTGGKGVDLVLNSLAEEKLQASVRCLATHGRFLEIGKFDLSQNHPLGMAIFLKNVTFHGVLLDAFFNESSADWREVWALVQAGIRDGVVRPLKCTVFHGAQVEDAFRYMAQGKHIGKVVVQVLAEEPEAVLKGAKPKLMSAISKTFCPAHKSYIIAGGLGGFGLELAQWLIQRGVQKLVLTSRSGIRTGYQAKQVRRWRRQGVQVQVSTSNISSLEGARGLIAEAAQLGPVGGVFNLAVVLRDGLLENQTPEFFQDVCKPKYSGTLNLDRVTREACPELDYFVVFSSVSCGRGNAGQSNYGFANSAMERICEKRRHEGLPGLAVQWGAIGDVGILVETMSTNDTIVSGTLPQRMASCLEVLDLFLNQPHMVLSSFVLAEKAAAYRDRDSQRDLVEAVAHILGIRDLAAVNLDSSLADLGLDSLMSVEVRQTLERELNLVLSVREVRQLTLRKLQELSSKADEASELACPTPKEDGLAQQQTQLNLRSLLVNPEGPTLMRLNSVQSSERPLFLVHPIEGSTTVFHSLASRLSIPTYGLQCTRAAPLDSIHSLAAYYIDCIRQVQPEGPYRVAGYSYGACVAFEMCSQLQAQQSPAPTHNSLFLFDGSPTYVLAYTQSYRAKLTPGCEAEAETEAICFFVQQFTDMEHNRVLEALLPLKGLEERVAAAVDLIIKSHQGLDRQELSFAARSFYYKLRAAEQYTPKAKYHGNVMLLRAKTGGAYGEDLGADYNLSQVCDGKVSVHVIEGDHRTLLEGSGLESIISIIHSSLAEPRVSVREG
T2 sequence (P11712 whole entry, the tested form may be a part): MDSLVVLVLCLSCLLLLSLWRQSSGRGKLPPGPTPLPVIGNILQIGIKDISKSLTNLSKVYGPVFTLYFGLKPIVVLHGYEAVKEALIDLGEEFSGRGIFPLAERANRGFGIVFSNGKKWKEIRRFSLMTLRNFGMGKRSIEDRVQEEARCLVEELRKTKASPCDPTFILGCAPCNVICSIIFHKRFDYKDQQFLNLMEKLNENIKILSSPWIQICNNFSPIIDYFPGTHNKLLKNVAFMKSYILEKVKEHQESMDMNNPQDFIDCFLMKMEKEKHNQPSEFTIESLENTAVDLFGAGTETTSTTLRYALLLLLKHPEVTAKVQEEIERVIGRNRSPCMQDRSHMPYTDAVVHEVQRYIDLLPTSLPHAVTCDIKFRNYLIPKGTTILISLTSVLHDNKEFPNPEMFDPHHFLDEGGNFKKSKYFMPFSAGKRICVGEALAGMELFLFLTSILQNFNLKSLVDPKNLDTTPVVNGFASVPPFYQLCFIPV
Sequence of Cytochrome P450 2C19 (P33261 whole entry): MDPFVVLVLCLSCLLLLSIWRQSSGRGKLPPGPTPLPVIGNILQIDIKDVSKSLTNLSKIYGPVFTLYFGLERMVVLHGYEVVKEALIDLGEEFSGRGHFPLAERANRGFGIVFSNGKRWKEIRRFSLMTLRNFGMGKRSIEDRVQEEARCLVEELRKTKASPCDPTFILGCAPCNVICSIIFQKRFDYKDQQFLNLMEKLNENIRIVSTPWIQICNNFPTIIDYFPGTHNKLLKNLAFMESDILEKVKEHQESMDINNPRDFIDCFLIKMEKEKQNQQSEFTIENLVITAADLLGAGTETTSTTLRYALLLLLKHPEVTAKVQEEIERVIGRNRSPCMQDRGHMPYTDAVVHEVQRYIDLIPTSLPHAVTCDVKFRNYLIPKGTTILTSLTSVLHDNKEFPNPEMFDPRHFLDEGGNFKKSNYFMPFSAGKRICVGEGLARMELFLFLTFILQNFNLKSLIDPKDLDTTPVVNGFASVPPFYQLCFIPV
Sequence of Cytochrome P450 3A4 (P08684 whole entry): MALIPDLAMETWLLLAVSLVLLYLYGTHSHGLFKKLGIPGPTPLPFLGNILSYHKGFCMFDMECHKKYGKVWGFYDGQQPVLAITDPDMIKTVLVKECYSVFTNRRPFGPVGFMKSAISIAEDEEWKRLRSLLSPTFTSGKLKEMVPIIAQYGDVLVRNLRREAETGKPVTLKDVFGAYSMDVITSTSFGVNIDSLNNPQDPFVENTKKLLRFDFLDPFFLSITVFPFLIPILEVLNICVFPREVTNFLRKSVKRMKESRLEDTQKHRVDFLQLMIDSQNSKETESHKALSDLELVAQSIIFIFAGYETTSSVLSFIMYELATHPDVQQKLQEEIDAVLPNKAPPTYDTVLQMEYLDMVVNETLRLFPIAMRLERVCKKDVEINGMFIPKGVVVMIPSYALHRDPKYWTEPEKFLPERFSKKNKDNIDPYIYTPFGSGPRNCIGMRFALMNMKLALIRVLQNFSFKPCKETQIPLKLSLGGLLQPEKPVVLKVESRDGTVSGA
Sequence of Cytochrome P450 2D6 (P10635 whole entry): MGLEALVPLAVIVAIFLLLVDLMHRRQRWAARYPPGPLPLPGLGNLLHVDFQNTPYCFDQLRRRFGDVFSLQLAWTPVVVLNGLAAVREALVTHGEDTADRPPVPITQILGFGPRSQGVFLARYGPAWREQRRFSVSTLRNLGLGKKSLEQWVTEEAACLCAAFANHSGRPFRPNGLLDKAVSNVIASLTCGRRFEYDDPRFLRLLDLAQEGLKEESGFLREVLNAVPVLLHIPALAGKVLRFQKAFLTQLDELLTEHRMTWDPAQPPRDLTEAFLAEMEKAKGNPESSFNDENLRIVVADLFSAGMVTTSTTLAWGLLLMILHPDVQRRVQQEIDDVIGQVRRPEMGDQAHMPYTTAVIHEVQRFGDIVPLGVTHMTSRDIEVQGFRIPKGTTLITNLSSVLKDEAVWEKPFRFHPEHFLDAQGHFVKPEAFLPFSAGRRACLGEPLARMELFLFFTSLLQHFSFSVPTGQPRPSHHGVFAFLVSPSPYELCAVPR
Sequence of Luciferin 4-monooxygenase (P08659 whole entry): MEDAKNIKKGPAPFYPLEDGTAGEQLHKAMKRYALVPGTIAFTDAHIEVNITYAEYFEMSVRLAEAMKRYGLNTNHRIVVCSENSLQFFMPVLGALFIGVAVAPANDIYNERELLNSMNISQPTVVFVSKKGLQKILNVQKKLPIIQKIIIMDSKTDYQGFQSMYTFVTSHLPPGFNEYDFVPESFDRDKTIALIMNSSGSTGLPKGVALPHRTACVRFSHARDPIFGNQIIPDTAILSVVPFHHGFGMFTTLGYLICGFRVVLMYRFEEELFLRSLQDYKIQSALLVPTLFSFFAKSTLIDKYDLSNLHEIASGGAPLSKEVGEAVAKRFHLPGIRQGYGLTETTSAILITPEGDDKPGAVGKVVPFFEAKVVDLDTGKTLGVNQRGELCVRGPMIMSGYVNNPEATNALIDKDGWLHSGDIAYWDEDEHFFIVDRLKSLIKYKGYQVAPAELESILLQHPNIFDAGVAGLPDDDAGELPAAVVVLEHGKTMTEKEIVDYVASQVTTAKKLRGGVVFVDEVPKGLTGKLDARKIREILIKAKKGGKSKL

Compound | AC50 (Cytochrome P450 2C19) | AC50 (Cytochrome P450 2C9 [1]) | IC50 (Fatty acid synthase [2]) | IC50 (Fatty acid synthase [3]) | AC50 (Cytochrome P450 3A4) | CC50 [5] | further results
CCCCCCCC/C=C\CCCCCCCC(=O)N[C@@H](CO)Cc1ccc(O)cc1 | 31.6 µM (inconclusive) | inconclusive |  |  |  |  | AC50 (Cytochrome P450 1A2): 25.1 µM (inconclusive)
CCn1c(C)c(C(C)=O)c(N2CCN(C(c3ccccc3)c3ccccc3)CC2)nc1=S |  |  | 8.43 µM (active) | 23.1 µM (inactive) |  |  | 
O=C1Nc2cc(Cl)c(Cl)cc2N(O)N1c1ccc(Cl)c(Cl)c1 | 28.2 µM (inconclusive) |  | 6.59 µM (active) | 12 µM (active) | 39.8 µM (inconclusive) |  | AC50 (Cytochrome P450 2C9 [4]): 3.98 µM (inconclusive)
Clc1ccc(CNc2nc(CN3CCOCC3)nc3scc(-c4ccccc4)c23)cc1 |  |  |  |  |  | > 40 µM (active) | 
O=C(Cc1ccccc1[N+](=O)[O-])NCc1ccccc1Cl |  | inconclusive |  |  | 15.8 µM (inconclusive) |  | AC50 (Cytochrome P450 2D6): 15.8 µM (inconclusive)
CC(C)(C)c1csc(NC(=O)c2c(F)c(F)c(F)c(F)c2F)n1 |  |  |  |  |  | 34 µM (active) | AC50 [6]: 26 µM (active); EC50 (Protein RecA): 18.4 µM (active)
COC(=O)CCC(=O)NNC(=O)CCCOc1ccc(Cl)cc1Cl | 3.55 µM (inconclusive) | inconclusive |  |  | 15.8 µM (inconclusive) |  | 
Cc1ccc2[nH]c(/C(C#N)=C/c3c[nH]nc3-c3ccc(F)cc3)nc2c1 |  |  |  |  |  | 26.9 µM (active) | EC50 [7]: > 120 µM (not active); EC50 [8]: 5.96 µM (active); EC50 (H4): > 120 µM (not active); EC50 [9]: > 112 µM (not active); EC50 [10]: 46.2 µM (active); EC50 [11]: 7.74 µM (active); EC50 [12]: 9.64 µM (active)
Cc1cccc(COCC(CC(C)C)N2CCN(C(=O)c3ccc(C(C)(C)C)cc3)CCC2=O)c1 (configuration not stated) |  |  | 8.21 µM (active) | 6.11 µM (active) |  |  | 
Cc1cccc(NC(=O)c2[nH]cnc2C(=O)N[C@@H](CCCCNC(=O)OC(C)(C)C)C(=O)OC(C)(C)C)c1 |  |  | 1.12 µM (active) | 0.658 µM (active) |  |  | EC50 [13]: 3.46 µM (active); EC50 (Streptokinase A): > 150 µM (not active); EC50 [14]: 2.44 µM (active); EC50 [15]: > 60 µM (not active); EC50 (Streptococcus): 8.6 µM (active)
